Test: PRMT5 Biochemical Assay: The assays were all performed in a buffer consisting of 20 mM Bicine (pH=7.6), 1 mM TCEP, 0.005% BSG, and 0.002% Tween20, prepared on the day of use. Compounds in 100% DMSO (1 ul) were spotted into a polypropylene 384-well V-bottom plates (Greiner) using a Platemate Plus outfitted with a 384-channel head (Thermo Scientific). DMSO (1 ul) was added to Columns 11, 12, 23, 24, rows A-H for the maximum signal control and 1 ul of SAH, a known product and inhibitor of PRMT5/MEP50, was added to columns 11, 12, 23, 24, rows I-P for the minimum signal control. A cocktail (40 ul) containing the PRMT5/MEP50 enzyme and the peptide was added by Multidrop Combi (Thermo-Fisher). The compounds were allowed to incubate with PRMT5/MEP50 for 30 min at 25 degrees Celsius, then a cocktail (10 ul) containing 3H-SAM was added to initiate the reaction (final volume=51 ul). The final concentrations of the components were as follows: PRMT5/MEP50 was 4 nM, 3H-SAM was 75 nM, peptide was 40 nM, SAH in the minimum signal control wells was 100 uM, and the DMSO concentration was 1%. The assays were stopped by the addition of non-radioactive SAM (10 ul) to a final concentration of 600 uM, which dilutes the 3H-SAM to a level where its incorporation into the peptide substrate is no longer detectable. […]

## C[C@H](Oc1cccc2cccnc12)C(=O)NC[C@@H](O)CN1Cc2ccccc2C1
  IC50: in the range around 550 nM

Source: ChEMBL document CHEMBL5725862, “PRMT5 inhibitors and uses thereof” (2018)
